Experimental findings from patent publication US20090130165A1, “MIF Inhibitors” (Cortical Pty Ltd, priority 2005, published 2009) are described below.

The structures appear in SMILES notation. Converted amounts (≈) assume the structure as drawn. Bounds are passed on as bounds.

Series [1] has as its target T1, Recombinant human MIF protein (Homo sapiens, UniProt P14174).
T1 sequence (P14174 2-115 limits assumed): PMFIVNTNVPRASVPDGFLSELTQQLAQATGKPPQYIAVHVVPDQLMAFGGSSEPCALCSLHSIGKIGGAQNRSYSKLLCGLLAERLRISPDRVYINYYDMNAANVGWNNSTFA
In words: Inhibition of MIF tautisomerase activity (L-dopachrome). The series is classed as biochemical. Conditions: mean±standard deviation of 2-4 experiments; for inhibition at 50 µM: 50 uM compound; for inhibition at 100 µM: 100 uM compound. The protocol: MIF protein has the ability in vitro to catalyze the tautisomerization of dopachrome^(15).
Recombinant human MIF protein was pre-incubated with compounds as indicated prior to the addition of L-dopachrome substrate. Tautomerase activity was determined by measurement of die decrease in absorbance at 475 nm after 2 min. […]

For series [2], the system named is LPS-induced IL-6 production in RAW264.7 mouse macrophage cell line. In words: Inhibition of LPS-induced production of IL-6 in RAW264.7 macrophages. The series is classed as cell-based. As to conditions: 50 uM compound, 100 ng/ml LPS 4 hr, RAW264.7 cells, relative to LPS+DMSO control. The protocol:
MIF is an important factor in the innate immune response to toxins such as the bacterial endotoxin lipopolysaccharide (LPS). […] A compound with the ability to inhibit the biological activity of MIF would therefore inhibit the activation of cytokine production by macrophages in response to LPS. The RAW264.7 mouse macrophage cell line was propagated in DMEM/10% foetal calf serum (FCS) at 37° C. in 5% CO2. 24 hr prior to assay cells were seeded in 96-well tissue culture plates. Cells were allowed to adhere for 4 hr prior to transfer to DMEM/0.5% FCS for 18 hr. Cells were then treated with 50 uM compound in DMSO for 30 min prior to stimulation for 4 hr with 100 ng/ml LPS. Cell culture supernatants were then collected from each well and assayed for IL-6 levels by ELISA (R&D Systems) according to the manufacturer's instructions.

Series [3] is described as follows: Lower limits of aqueous solubility by nephelometry. The series is classed as physicochemical. As to conditions: phosphate-buffered saline with 0.005% (v/v) P20 and 5% DMSO, aqueous with cosolvent or surfactant or cyclodextrin, kinetic from dmso stock, 0.005% (v/v) P20, 5% DMSO, read-out: Solubility Lower Limit Range. As for the experimental part: Lower limits of aqueous compound solubility were determined in a nepholometer in phosphate-buffered saline containing 0.005% (v/v) P20 and a final concentration of 5% DMSO. Briefly, compounds were initially dissolved in DMSO as a 10 mM stock solution and diluted to 1 mM and 0.5 mM working solutions with neat DMSO. The compounds were then titrated in DMSO and a constant volume of DMSO stock added to filtered PBS/P20 solution so that the final DMSO concentration was 5%. The solubility was then determined in clear, flat-bottom 96-well plates using the nephelometer and reported as the concentration range at which the compound begins to precipitate from solution.

The test system of series [4] is C57Bl/6j mice. In words: In vivo assay of MIF antagonism: murine endotoxic shock model, serum TNF. On the set-up: species or system mouse. As to conditions: intra-peritoneal, 10, 1 and 0.1 mg/kg at 24 hours and 1 hour before LPS 1 mg/kg (FIG. 3). The protocol: The activities of compounds were studied in the murine endotoxic shock model. This model has been previously shown to be dependent on MIF^(14). Administration of a compound which inhibits the cytokine activity of MIF would be expected to result hi a reduction in serum level s of the pro-inflammatory cytokine TNF.
Endotoxaemia was induced by intra-peritoneal Injection of C57Bl/6j mice with lipopolysaccharide (LPS) (1 mg/kg) in 200 μl saline. Animals were treated with either a saline solution (control) only, or LPS with vehicle or compounds B1 and A3 in vehicle at doses of 10, 1 and 0.1 mg/kg body weight, administered by intra-peritoncal injection at 24 hours and 1 hour before intra-peritoneal LPS injection. After 1 hour mice were humanely killed by CO2 inhalation then neck dislocation. Serum was obtained from blood obtained by cardiac puncture prior to death and measured for TNF levels by ELISA according to the manufacturer's instructions.

For the molecule `Cn1c(=O)sc2cc(C(=O)CSCCC(=O)O)c(Cl)cc21` [Compound 32, 3-((2-(5-chloro-3-methyl-2-oxo-2,3-dihydro-1,3-benzothiazol-6-yl)-2-oxoethyl)thio)propanoic acid], the melting point (as a rule, the temperature of the solid-liquid transition) lay in the range of 120 to 121 °C. In addition, in series [1], the inhibition (as a rule, the drop in the measured response relative to a control, in per cent) at 50 µM was determined as 4 ± 1% and the inhibition at 100 µM stood at 11 ± 4%.

On to `O=C(CSCCCCCCO)c1ccc2[nH]c(=O)oc2c1` [Compound 15, 6-(((6-Hydroxyhexyl)thio)acetyl)-1,3-benzoxazol-2(3H)-one], for which testing at 50 µM in series [2] gave an inhibition of 42 ± 40%. The solubility (as a rule, the dissolved amount per volume that the medium holds) in series [3] was in the range of 0.077 to 0.25 mg/mL (≈ 249 to 808 µM). The “suppression of LPS-induced serum TNF levels, in words” value in series [4] was “significant dose-dependent suppression”.

`O=C1Cc2cc(C(=O)CSCCCCCCO)c(Cl)cc2N1` [Compound 11, 6-chloro-5-(((6-hydroxyhexyl)thio)acetyl)-1,3-dihydro-2H-indol-2-one] showed an inhibition at 50 µM in series [2] of 48 ± 24%.

For `O=C(O)CSCC(=O)c1ccc2[nH]c(=O)[nH]c2c1` [Compound 6, ((2-oxo-2-(2-oxo-2,3-dihydro-1H-benzimidazol-5-yl)ethyl)thio)acetic acid], the melting point is 230 °C (dec.). For the same molecule, the solubility in series [3] is 0.067 to 0.25 mg/mL (≈ 252 to 939 µM).

For the molecule `O=C(CSCCO)c1ccc2[nH]c(=O)[nH]c2c1` [Compound 7, 5-(((2-hydroxyethyl)thio)acetyl)-1,3-dihydro-2H-benzimidazol-2-one], the melting point was 320 °C (dec.).

In turn, `O=C1Cc2cc(C(=O)CSCCCCCCO)ccc2N1` [Compound 9, 5-(((6-hydroxyhexyl)thio)acetyl)-1,3-dihydro-2H-indol-2-one] yielded a melting point of 105 to 108 °C.

In turn, `CCCCSCC(=O)c1ccc2c(c1)n(C)c(=O)n2C` [Compound 24, 5-((butylthio)acetyl)-1,3-dimethyl-1,3-dihydro-2H-benzimidazol-2-one] had a melting point of 80 to 81 °C. Moreover, in series [1], the inhibition at 50 µM came to 15 ± 6% and the inhibition at 100 µM was 34 ± 12%.

`COC(=O)CCSCC(=O)c1cc2c(cc1Cl)NC(=O)C2` [Compound 12, methyl 3-((2-(6-chloro-2-oxo-2,3-dihydro-1H-indol-5-yl)-2-oxoethyl)thio)propanoate] returned a melting point of 75 to 77 °C. This molecule showed an inhibition at 50 µM in series [2] of 60%.

In turn, `CCCCSCC(=O)c1ccc2c(c1)CC(=O)N2` [Compound 21, 5-((Butylthio)acetyl)-1,3-dihydro-2H-indol-2-one] registered an inhibition at 50 µM in series [2] of 41 ± 54%.

Take `O=C(CSCCCCCCO)c1ccc2[nH]c(=O)[nH]c2c1` [Compound 10, 5-(((6-hydroxyhexyl)thio)acetyl)-1,3-dihydro-2H-benzimidazol-2-one]: the melting point lay in the range of 180 to 181 °C. This molecule also displayed an inhibition at 50 µM in series [2] of 25%.

`CCCCSCC(=O)c1cc2sc(=O)n(C)c2cc1Cl` [Compound 31, 6-((butylthio)acetyl)-5-chloro-3-methyl-1,3-benzothiazol-2(3H)-one]: in series [1], the inhibition at 50 µM worked out at 2 ± 3% and the inhibition at 100 µM came out at 8 ± 8%.

The molecule `CCCCSCC(=O)c1ccc2[nH]c(=O)[nH]c2c1` [Compound 22, 5-((butylthio)acetyl)-1,3-dihydro-2H-benzimidazol-2-one] gave a melting point of 211 to 213 °C. Besides, in series [1], the inhibition at 50 µM worked out at 4 ± 6% and the inhibition at 100 µM turned out to be 4 ± 7%.

`Cn1c(=O)n(C)c2cc(C(=O)CSCCC(=O)O)ccc21` [Compound 23, 3-((2-(1,3-dimethyl-2-oxo-2,3-dihydro-1H-benzimidazol-5-yl)-2-oxoethyl)thio) propanoic acid] registered a melting point of 174 to 176 °C. In addition, in series [1], the inhibition at 50 µM was found to be 0% and the inhibition at 100 µM worked out at 3 ± 2%.

Regarding `O=C(O)CCSCC(=O)c1ccc2[nH]c(=O)sc2c1` [Compound 18, 3-((2-Oxo-2-(2-oxo-23-dihydro-1,3-benzothiazol-6-yl)ethyl)thio)propanoic acid], the inhibition at 50 µM in series [2] was determined as 49 ± 34%.

As for `CCCCSCC(=O)c1cc2c(cc1Cl)n(C)c(=O)n2C` [Compound 27, 5-((butylthio)acetyl)-6-chloro-1,3-dimethyl-1,3-dihydro-2H-benzimidazol-2-one], in series [1], the inhibition at 50 µM was 28 ± 17% and the inhibition at 100 µM came out at 44 ± 12%.

For the molecule `O=C(O)CCSCC(=O)c1cc2[nH]c(=O)[nH]c2cc1Cl` [Compound 26, 3-((2-(6-chloro-2-oxo-2,3-dihydro-1H-benzimidazol-5-yl)-2-oxoethyl)thio)propanoic acid], in series [1], the inhibition at 50 µM was found to be 2 ± 3% and the inhibition at 100 µM stood at 4 ± 6%.

`CCCCSCC(=O)c1cc2sc(=O)[nH]c2cc1Cl` [Compound 29, 6-((butylthio)acetyl)-5-chloro-1,3-benzothiazol-2(3H)-one]: the melting point fell in the range of 102.5 to 115 °C. In series [1], the inhibition at 50 µM was found to be 24 ± 1% and the inhibition at 100 µM came to 42 ± 9%.

`CCCCSCC(=O)c1ccc2[nH]c(=O)oc2c1` [Compound 16, 6-((Butylthio)acetyl)-1,3-benzoxazol-2(3H)-one] returned an inhibition at 50 µM in series [2] of 12 ± 63%.

Regarding `COC(=O)CCSCC(=O)c1ccc2c(c1)CC(=O)N2` [Compound 1, methyl 3-((2-oxo-2-(2-oxo-2,3-dihydro-1H-indol-5-yl)ethyl)thio)propanoate], the melting point was 106 to 108 °C. The molecule also had an inhibition at 50 µM in series [2] of 13 ± 23%. Besides, in series [3], the solubility lay within 0.018 to 0.063 mg/mL (≈ 61.4 to 215 µM).

In turn, `COC(=O)CSCC(=O)c1ccc2[nH]c(=O)[nH]c2c1` [Compound 5, methyl ((2-oxo-2-(2-oxo-2,3-dihydro-1H-benzimidazol-5-yl)ethyl)thio)acetate] came in with a melting point of 177 to 178.5 °C.

`CCCCSCC(=O)c1cc2c(cc1Cl)NC(=O)C2` [Compound 20, 5-((Butylthio)acetyl)-6-chloro-1,3-dihydro-2H-indol-2-one] displayed an inhibition at 50 µM in series [2] of 59 ± 11%.

Regarding `O=C(O)CCSCC(=O)c1ccc2[nH]c(=O)oc2c1` [Compound 14, 3-((2-Oxo-2-(2-oxo-2,3-dihydro-1,3-benzoxazol-6-yl)ethyl)thio)propanoic acid], in series [3], the solubility was greater than 0.14 mg/mL.

For the molecule `Cn1c(=O)n(C)c2cc(C(=O)CSCCC(=O)O)c(Cl)cc21` [Compound 28, 3-((2-(6-chloro-1,3-dimethyl-2-oxo-2,3-dihydro-1H-benzimidazol-5-yl)-2-oxoethyl)thio)propanoic acid], the melting point lay within 148 to 150 °C. For the same molecule, in series [1], the inhibition at 50 µM came to 12 ± 6% and the inhibition at 100 µM was determined as 27 ± 6%.

`CCCCSCC(=O)c1cc2[nH]c(=O)[nH]c2cc1Cl` [Compound 25, 5-((butylthio)acetyl)-6-chloro-1,3-dihydro-2H-benzimidazol-2-one] came in with a melting point of 199 to 201 °C. Further, in series [1], the inhibition at 50 µM came to 4 ± 3% and the inhibition at 100 µM worked out at 12 ± 4%.

The molecule `O=C(O)CCSCC(=O)c1cc2sc(=O)[nH]c2cc1Cl` [Compound 30, 3-((2-(5-chloro-2-oxo-2,3-dihydro-1,3-benzothiazol-6-yl)-2-oxoethyl)thio)propanoic acid] registered a melting point of 195 to 197 °C. Further, in series [1], the inhibition at 50 µM turned out to be 12 ± 11% and the inhibition at 100 µM stood at 27 ± 16%.

In turn, `O=C(O)CSCC(=O)c1ccc2[nH]c(=O)oc2c1` [Compound 17, ((2-Oxo-2-(2-oxo-2,3-dihydro-1,3-benzoxazol-6-yl)ethyl)thio)acetic acid] displayed an inhibition at 50 µM in series [2] of 8 ± 90%.

With `CC(=O)OCCCCCCSCC(=O)c1ccc2c(c1)CC(=O)N2` [Compound 8, 6-((2-oxo-2-(2-oxo-2,3-dihydro-1H-indol-5-yl)ethyl)thio)hexyl acetate], the melting point is 86 to 87 °C. The molecule further showed an inhibition at 50 µM in series [2] of 42 ± 11%.
